The subject of data set [1] is RAW264.7. Put plainly: Antiinflammatory activity in mouse RAW264.7 cells assessed as inhibition of LPS-induced nitric oxide production by measuring nitrite accumulation by Griess method. The class given is functional, cell-based.
Data set [2] has as its system RAW264.7. Put plainly: Cytotoxicity in LPS-stimulated mouse RAW264.7 cells at =>10 uM by MTT assay. The class given is cell-based.
For data set [3], the system named is RAW264.7. Put plainly: Cytotoxicity in LPS-stimulated mouse RAW264.7 cells at =>100 uM by MTT assay. The class given is cell-based.
Data set [4] relates to RAW264.7. Put plainly: Antiinflammatory activity in mouse RAW264.7 cells assessed as inhibition of LPS-induced iNOS mRNA expression after 20 hrs by RT-PCR method. The class given is functional, cell-based.
For data set [5], the system named is RAW264.7. The experiment in a line: Antiinflammatory activity in mouse RAW264.7 cells assessed as inhibition of LPS-induced COX2 mRNA expression after 20 hrs by RT-PCR method. The class given is functional, cell-based.

Turning to `CO[C@@H]1C[C@H](O[C@H]2CC[C@@]3(C)C(=CC[C@]4(O)[C@@H]3C(=O)[C@@H]3O[C@H](C)[C@@H]5CC[C@@]4(O)[C@]35C)C2)O[C@H](C)[C@@H]1OC(C)=O`, the IC50 with RAW264.7 [1] (read-out: IC50) turned out to be 87.8 µM. Turning to `COc1ccc2c(c1)c(CC(=O)O)c(C)n2C(=O)c1ccc(Cl)cc1` [INDOMETHACIN], the IC50 in the data set with RAW264.7 [1] (read-out: IC50) is 46.5 µM. On to `CO[C@@H]1C[C@H](O[C@H]2CC[C@@]3(C)C(=CC[C@@H]4[C@@H]3C(=O)[C@@H]3O[C@H](C)[C@@H]5CC[C@@]4(O)[C@]35C)C2)O[C@H](C)[C@@H]1OC(C)=O`, for which the IC50 in the data set with RAW264.7 [1] (read-out: IC50) is 91.2 µM.

As for `COC(=O)[C@H]1[C@@H](C(=O)CC[C@H]2[C@H](C)OC(=O)[C@@H]2C)CC=C2C[C@@H](O[C@H]3C[C@@H](OC)[C@@H](OC(C)=O)[C@@H](C)O3)CC[C@@]21C`, in the data set on RAW264.7 [1] (read-out: IC50), the IC50 amounted to 31.6 µM. For `COC(=O)[C@H]1[C@@H](C(=O)CC[C@H]2[C@H](C)OC(=O)[C@@H]2C)CC=C2C[C@@H](O[C@H]3C[C@@H](OC)[C@@H](O)[C@@H](C)O3)CC[C@@]21C`, in the data set with RAW264.7 [1] (read-out: IC50), the IC50 came out at 87.3 µM. Also, the Activity result in the data set on RAW264.7 [2] is recorded as “Toxic”. With `CO[C@@H]1C[C@H](O[C@H]2CC[C@@]3(C)C(=CC[C@]4(O)[C@@H]3C(=O)[C@@H]3O[C@H](C)[C@@H]5CC[C@@]4(O)[C@]35C)C2)O[C@H](C)[C@@H]1O`, in the data set on RAW264.7 [1] (read-out: IC50), the IC50 turned out to be 62.5 µM. Turning to `O=C(/C=C/c1ccc(O)c(O)c1)OCCc1ccccc1` [CAFFEIC ACID PHENETHYL ESTER], the IC50 in the data set with RAW264.7 [1] (read-out: IC50) was found to be 9.3 µM. `COC(=O)[C@H]1[C@@H](C(=O)CC[C@H]2[C@H](C)OC(=O)[C@H]2C)CC=C2C[C@@H](O[C@H]3C[C@@H](OC)[C@@H](O)[C@@H](C)O3)CC[C@@]21C`: in the data set with RAW264.7 [1] (read-out: IC50), the IC50 was 66.1 µM.

As for `CO[C@@H]1C[C@H](O[C@H]2CC[C@@]3(C)C(=CC[C@@H]4[C@@H]3C(=O)O[C@@]43CC[C@H]4[C@H](C)OC(=O)[C@]43C)C2)O[C@H](C)[C@@H]1OC(C)=O`, in the data set on RAW264.7 [1] (read-out: IC50), the IC50 was determined as 60.4 µM. Same read-out and setting: in the case of `CO[C@@H]1C[C@H](O[C@H]2CC[C@@]3(C)C(=CC[C@@H]4[C@@H]3C(=O)[C@]3(O)O[C@H](C)[C@@H]5CC[C@@]4(O)[C@@]53C)C2)O[C@H](C)[C@@H]1O` it was 84 µM. As to `CO[C@@H]1C[C@H](O[C@H]2CC[C@@]3(C)C(=CC[C@@H]4[C@@H]3C(=O)[C@@H]3O[C@H](C)[C@@H]5CC[C@@]4(O)[C@]35C)C2)O[C@H](C)[C@@H]1O`, the Activity entry with RAW264.7 [3] was “Toxic”. In addition, the IC50 in the data set on RAW264.7 [1] (read-out: IC50) came to 96.5 µM.

With `CO[C@@H]1C[C@H](O[C@H]2CC[C@@]3(C)C(=CC[C@@H]4[C@@H]3C(=O)O[C@@]43CC[C@H]4[C@H](C)OC(=O)[C@]43C)C2)O[C@H](C)[C@@H]1O`, the IC50 with RAW264.7 [1] (read-out: IC50) was determined as 93.8 µM.

Turning to `CO[C@@H]1C[C@H](O[C@H]2CC[C@@]3(C)C(=CC[C@@H]4[C@@H]3C(=O)[C@@H]3O[C@H](C)[C@@H]5CC[C@@]4(O)[C@]35C)C2)O[C@H](C)[C@@H]1O[C@@H]1O[C@H](CO)[C@@H](O)[C@H](O)[C@H]1O`, in the data set with RAW264.7 [1] (read-out: IC50), the IC50 is greater than 100 µM.

Take `CC(C)Cc1ccc(C(C)C(=O)O)cc1` (stereo not drawn) [IBUPROFEN]: in the data set with RAW264.7 [1] (read-out: IC50), the IC50 stood at 54.5 µM. For the compound `N=C(NCCC[C@H](N)C(=O)O)N[N+](=O)[O-]` [NITROARGININE], the IC50 with RAW264.7 [1] (read-out: IC50) came out at 37.7 µM. Turning to `COC(=O)[C@H]1[C@@H](C(=O)CC[C@H]2[C@H](C)OC(=O)[C@H]2C)CC=C2C[C@@H](O[C@H]3C[C@@H](OC)[C@@H](OC(C)=O)[C@@H](C)O3)CC[C@@]21C`, the Activity result is “Toxic” in the data set on RAW264.7 [3], “Dose-dependent effect” in the data set on RAW264.7 [4] and “Dose-dependent effect” in the data set on RAW264.7 [5]. In addition, the IC50 in the data set with RAW264.7 [1] (read-out: IC50) is 12.6 µM.

As for `CC(=O)Oc1ccccc1C(=O)O` [ASPIRIN], the IC50 with RAW264.7 [1] amounted to 43.2 µM. `CO[C@@H]1C[C@H](O[C@H]2CC[C@@]3(C)C(=CC[C@]4(O)[C@@H]3C(=O)[C@@H]3OC(C)[C@@H]5CC[C@@]4(O)[C@]35C)C2)O[C@H](C)[C@@H]1O[C@@H]1O[C@H](CO)[C@@H](O)[C@H](O)[C@H]1O` (stereo partly drawn): the half-maximal inhibitory concentration (IC50) in the data set on RAW264.7 [1] (read-out: IC50) was greater than 100 µM.

Values taken from ChEMBL document CHEMBL4190201, “Anti-inflammatory 12,20-Epoxypregnane and 11,12-seco-Pregnane Glycosides from the Stems of Hoya kerrii” (J Nat Prod, 2017).
